Measured values: ChEMBL document CHEMBL1255235, “Molecular basis for resistance of acanthamoeba tubulins to all major classes of antitubulin compounds” (Antimicrob Agents Chemother, 2008)

What was measured:
[1] = Inhibition of tubulin in Acanthamoeba polyphaga by alamar blue assay
[2] = Inhibition of tubulin in rabbit corneal cells by alamar blue assay; type: cell-based; settings: Oryctolagus cuniculus, Cornea
[3] = Inhibition of tubulin in Acanthamoeba castellanii by alamar blue assay
Acanthamoeba polyphaga = assay: Antimicrobial activity against Acanthamoeba polyphaga; type: functional, organism-based
Acanthamoeba castellanii = assay: Antimicrobial activity against Acanthamoeba castellanii; type: functional, organism-based
Toxoplasma gondii = assay: Antimicrobial activity against Toxoplasma gondii; type: functional, organism-based
Leishmania sp. = assay: Antimicrobial activity against Leishmania sp.; type: functional, organism-based

| IC50 (Acanthamoeba polyphaga) [µM] | IC50 (Acanthamoeba castellanii) [µM] | IC50 (Leishmania sp.) [µM] | Compound | IC50 [1] [µM] | IC50 [2] [µM] | IC50 [3] [µM] | IC50 (Toxoplasma gondii) [µM] |
| --- | --- | --- | --- | --- | --- | --- | --- |
|  |  |  | CCCSc1ccc2[nH]c(NC(=O)OC)nc2c1 [ALBENDAZOLE] | > 47 | 0.7 | > 47 |  |
|  |  |  | CCCN(CCC)c1c([N+](=O)[O-])cc(S(N)(=O)=O)cc1[N+](=O)[O-] [ORYZALIN] | > 100 | > 500 | > 100 |  |
| 3.12 | 1.56 |  | N=C(NCCCCCCNC(=N)NC(=N)Nc1ccc(Cl)cc1)NC(=N)Nc1ccc(Cl)cc1 [CHLORHEXIDINE] |  |  |  |  |
|  |  | 0.035 | CC(=O)O[C@H]1C(=O)[C@@]2(C)[C@H]([C@H](OC(=O)c3ccccc3)[C@]3(O)C[C@H](OC(=O)[C@H](O)[C@@H](NC(=O)c4ccccc4)c4ccccc4)C(C)=C1C3(C)C)[C@]1(OC(C)=O)CO[C@@H]1C[C@@H]2O [PACLITAXEL] | > 10 | 0.04 | > 10 | 1 |
|  |  |  | CC[C@]1(O)C[C@@H]2CN(CCc3c([nH]c4ccccc34)[C@@](C(=O)OC)(c3cc4c(cc3OC)N(C)[C@H]3[C@@](O)(C(=O)OC)[C@H](OC(C)=O)[C@]5(CC)C=CCN6CC[C@]43[C@@H]65)C2)C1 [VINBLASTINE] | 0.68 | 0.017 | 0.68 |  |
|  |  |  | COc1cc2c(c(OC)c1OC)-c1ccc(OC)c(=O)cc1[C@@H](NC(C)=O)CC2 [COLCHICINE] | 2500 | 2.4 | 2.5 |  |
